“And” between values parts separate entries of the source, which are not always exact repeats. Equal values may be shown once. Read-outs that look alike come from different tables or passages of the source.
Key:
[1] = test system: normal human lung fibroblasts (Wi-38); assay: MTT cytotoxicity screening on normal human lung fibroblasts (Wi-38); format: cell-based; settings: for IC50: Homo sapiens; for IC50 / EC100: Wi-38, 72 h, MTT, mean ± SEM; for EC100: concentration at 100% cell viability
Excerpt: (§1) All derivatives were subjected to preliminary cytotoxicity screening on normal human lung fibroblasts (Wi-38) for selectivity assessment, followed by anticancer evaluation against MDA-MB231, Caco-2, and HepG-2 cells compared to the reference multitarget chemotherapeutic agent doxorubicin (Dox) by MTT assay. It is worth mentioning that previous studies reported that Dox inhibits the VEGF pathway which is the main anticancer target of the current study via various mechanisms.
(§2) The compounds’ cytotoxicity on normal and cancer cells was assayed by MTT as reported and detailed in the Supplementary Materials. […]
(§3) 2.1. Cytotoxicity screening on normal human lung fibroblasts (Wi-38)
(§4) The normal human lung fibroblast Wi-38 cell line was used to detect cytotoxicity of the studied compounds. Wi-38 cell line was cultured in DMEM medium-contained 10 % fetal bovine serum (FBS), seeded as 5x10^3 cells per well in 96-well cell culture plate, and incubated at 37 °C in 5 % CO2 incubator. After 24 h for cell attachment, serial concentrations (25-800 nM) of the synthetic compounds and currently used chemotherapy (doxorubicin) were incubated with Wi-38 cells for 72 h. Cell viability was assayed by the MTT method. Twenty microliters of 5 mg/ml MTT (Sigma, USA) were added to each well and the plate was incubated at 37 °C for 3 h. Then MTT solution was removed, 100 µl DMSO was added and the absorbance of each well was measured with a microplate reader (BMG LabTech, Germany) at 570 nm. Plot of Wi-38 cell […]
(§5) compounds (8 and 9) and the reference chemotherapy (Dox) is illustrated in figure 39-A. The effective […]
(§6) was estimated by the Graphpad Instat software. Additionally, morphology of Wi-38 before and after […]
microscope with a digital camera (Olympus, Japan). […]

MDA-MB 231 = assay: MTT anticancer activity, MDA-MB 231; format: cell-based, human; settings: for IC50: Homo sapiens, MDA-MB 231, 72 h, MTT, mean ± SEM; for SI: ratio IC50 on normal cells (Wi-38) / IC50 on MDA-MB 231
Excerpt: as §1, §2, §3, §4, §5, §6
(§7) microscope with a digital camera (Olympus, Japan).
(§8) 2.2. Determination of the anticancer activity
(§9) The anticancer effect of the above-mentioned compounds, in comparison with doxorubicin (Dox), was assayed using three human cancer cell lines. Colon cancer cell line (Caco-2) was cultured in DMEM (Lonza, USA) contained with 10 % FBS while liver cancer cell line (HepG-2) and triple-negative breast cancer cell line (MDA- MB 231) were cultured in RPMI-1640 (Lonza, U SA) supplemented with 10 % FBS. […] After 24h, serial concentrations (0.2-125 nM) of the tested compounds were incubated with three cancer cell lines for 72 h at 37 °C in a 5 % CO2 incubator. MTT method was done as described above. Plots of cancer cells viability (%) and growth inhibition (%) of the studied […]
(§10) illustrated in figure 39. […]
(§11) The half-maximal inhibitory concentration (IC50) values were calculated using the Graphpad Instat […]
(§12) safest anticancer compounds were investigated using phase-contrast inverted microscope with a digital […]
(§13) ratio of IC50 value of normal cells to IC50 value of each studied cancer cell lines.
(§14) Figure S40. Plot of (A) Wi-38 cell viability (%) and (B-D) growth inhibition (%) of cancer cell lines with […]

Caco-2 = assay: MTT anticancer activity, Caco-2; format: cell-based, human; settings: for IC50: Homo sapiens, Caco-2, 72 h, MTT, mean ± SEM
Excerpt: as §1, §2, §3, §4, §5, §6, §7, §8, §9, §10, §11, §12, §13, §14

HepG-2 = assay: MTT anticancer activity, HepG-2; format: cell-based, human; settings: for IC50: Homo sapiens, HepG2, HepG-2, 72 h, MTT, mean ± SEM; for SI: ratio IC50 on normal cells (Wi-38) / IC50 on HepG-2
Excerpt: as §1, §2, §3, §4, §5, §6, §7, §8
The anticancer effect of the above-mentioned compounds, in comparison with doxorubicin (Dox), was assayed using three human cancer cell lines. Colon cancer cell line (Caco-2) was cultured in DMEM (Lonza, USA) contained with 10 % FBS while liver cancer cell line (HepG-2) and triple-negative breast cancer cell line (MDA- MB 231) were cultured in RPMI-1640 (Lonza, U SA) supplemented with 10 % FBS. […]
compounds were incubated with three cancer cell lines for 72 h at 37 °C in a 5 % CO2 incubator. MTT method was done as described above. Plots of cancer cells viability (%) and growth inhibition (%) of the studied […]
as §10, §11, §12, §13, §14

MMP-2 = molecular target: T1, MMP-2 (Homo sapiens, UniProt P08253); assay: MMP-2 inhibitor screening kit (colorimetric); format: biochemical; settings: in vitro MMP-2
T1 construct: read from the 'ab' catalogue number) ab139446
Description: VEGFR-2 inhibition was detected by VEGFR-2 (KDR) Kinase Assay Kit-BPS Bioscience Corporation catalog # 40325 [107]. MMP-2 inhibitory activities were evaluated utilizing MMP-2 inhibitor screening kit (Colorimetric) catalog # ab139446 [108]. CA II inhibition assay was performed as reported. The protocols are detailed in the Supplementary Materials.
2.4. MMP-2 inhibitory activity assay […]
inhibitor screening kit (Colorimetric) catalog # ab139446 following the manufacturer’s instructions. The assay uses a thiopeptide as a chromogenic substrate. The MMP cleavage site peptide bond is replaced by a thioester bond in the thiopeptide. Hydrolysis of this bond by MMP-2 produces a sulfhydryl group, which reacts with Ellman’s reagent to form 2-nitr o-5-thiobenzoic acid that can be detected by its absorbance at 412 nm. The pr ocedure of MMP -2 inhibiti on assay is as foll owing
- Add test compounds and diluted enzyme solution to the microplate wells.
- Simultaneously establish the following control wells.
- Vehicle control contains MMP enzyme and vehicle used in delivering test compound (DMSO, concentration […]
- bring the total volume of all controls to 50 µL. Pre-incubate the plate for 10 min. at assay temperature to 37°C.
- Run the enzymatic reaction. […]
inhibited), which were calculated from dose-response curve obtained using eight tested concentrations of the inhibitor and carried out in duplicate. […]

[2] = ratio IC50 on normal cells (Wi-38) / IC50 on Caco-2

T1 sequence (P08253 110-446 limits assumed): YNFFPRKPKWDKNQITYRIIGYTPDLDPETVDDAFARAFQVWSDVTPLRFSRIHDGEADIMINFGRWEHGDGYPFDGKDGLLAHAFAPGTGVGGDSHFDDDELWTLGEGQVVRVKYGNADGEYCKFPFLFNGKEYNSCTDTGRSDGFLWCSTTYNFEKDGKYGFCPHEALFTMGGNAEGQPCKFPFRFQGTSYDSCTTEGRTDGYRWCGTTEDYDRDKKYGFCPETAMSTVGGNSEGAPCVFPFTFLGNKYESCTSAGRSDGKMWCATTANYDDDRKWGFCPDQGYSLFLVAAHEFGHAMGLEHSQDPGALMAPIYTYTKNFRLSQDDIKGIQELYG

SMILES | IC50 (MDA-MB 231) | IC50 (Caco-2) | IC50 (HepG-2) | melting point | IC50 [1] | EC100 [1] | SI (MDA-MB 231) | SI (Caco-2; [2]) | SI (HepG-2) | EC100 ([1]; listed as Dox) | morphological alteration of treated cells ([1]; Wi-38 at 30 nM, phase-contrast microscopy) | SI (Caco-2) | IC50 (MMP-2)
Cc1cc(=O)[nH]c(NN=C[C@H](O)[C@@H](O)[C@H](O)CO)n1 [Compound 2, D-Xylose-(6-methyl-4-oxo-2-pyrimidinyl)hydrazone] | 100 ± 2.99 nM | 128 ± 1.48 nM | 3550 ± 35.5 nM | 215 to 216 °C | 92.86 ± 0.35 nM | 46.35 ± 1.35 nM | 0.93 | 0.73 | 0.02 | – | – | – | –
Cc1cc(=O)[nH]c(NN=C[C@H](O)[C@@H](O)[C@H](O)[C@H](O)CO)n1 [Compound 3, D-Glucose-(6-methyl-4-oxo-2-pyrimidinyl)hydrazone] | 75.8 ± 1.25 nM | 96.49 ± 0.09 nM | 3490 ± 182 nM | 240 to 242 °C | 176 ± 4.14 nM | 84.54 ± 1.00 nM | 2.33 | 1.83 | 0.05 | – | – | – | –
Cc1cc(=O)[nH]c(NN=C[C@@H](O)[C@@H](O)[C@H](O)[C@H](O)CO)n1 [Compound 4, D-Mannose-(6-methyl-4-oxo-2-pyrimidinyl)hydrazone] | 93.7 ± 2.69 nM | 108.1 ± 0.62 nM | 4940 ± 101 nM | 220 to 222 °C | 128 ± 2.96 nM | 64.61 ± 0.68 nM | 1.37 | 1.19 | 0.03 | – | – | – | –
COc1ccc(S(=O)(=O)N(CC(=O)NO)CC(C)C)cc1 [NNGH, N-Isobutyl-N-(4-methoxyphenylsulfonyl)glycyl hydroxamic acid] | – | – | – | – | – | – | – | – | – | – | – | – | 298 ± 20.2 nM

Continued, in another order:

IC50 (MDA-MB 231) | IC50 (Caco-2) | IC50 (HepG-2) | melting point | SMILES | IC50 [1] | EC100 [1] | SI (MDA-MB 231) | SI (Caco-2; [2]) | SI (HepG-2) | EC100 ([1]; listed as Dox) | morphological alteration of treated cells ([1]; Wi-38 at 30 nM, phase-contrast microscopy) | SI (Caco-2) | IC50 (MMP-2)
83.3 ± 3.06 nM | 111 ± 2.94 nM | 3820 ± 126 nM | 213 to 214 °C | Cc1cc(=O)[nH]c(NN=C[C@H](O)[C@@H](O)[C@@H](O)[C@H](O)CO)n1 [Compound 5, D-Galactose-(6-methyl-4-oxo-2-pyrimidinyl)hydrazone] | 102 ± 1.25 nM | 48.16 ± 1.66 nM | 1.23 | 0.92 | 0.03 | – | – | – | –
46.3 ± 3.32 nM | 54.06 ± 0.47 nM | 4628 ± 33 nM | 112 to 114 °C | CC(=O)OCC(OC(C)=O)C(OC(C)=O)C(OC(C)=O)C1N(C(C)=O)N(C(C)=O)c2nc(C)cc(=O)n21 [Compound 6, N^1,N^2-Diacetyl-3-(1,2,3,4-tetra-O-acetyl-D-xylo-tetritol-1-yl)-7-methyl-5-oxo-1,2,4-triazolo[4,3-a]pyrimidine] | 587.1 ± 4.48 nM | 353.7 ± 9.54 nM | 12.69 | 10.86 | 0.13 | – | – | – | –
39.99 ± 0.04 nM | 47.44 ± 0.38 nM | 3730 ± 252 nM | 97 to 100 °C | CC(=O)OCC(OC(C)=O)C(OC(C)=O)C(OC(C)=O)C(OC(C)=O)C1N(C(C)=O)N(C(C)=O)c2nc(C)cc(=O)n21 [Compound 7, N^1,N^2-Diacetyl-3-(1,2,3,4,5-penta-O-acetyl-D-galacto-pentitol-1-yl)-7-methyl-5-oxo-1,2,4-triazolo[4,3-a]pyrimidine] | 872 ± 16.3 nM | 664.3 nM and 664.3 ± 26.60 nM | 21.82 | 18.39 | 0.23 | – | – | – | –
– | – | – | 100 to 102 °C | CC(=O)OC[C@@H](OC(C)=O)[C@@H](OC(C)=O)[C@H](OC(C)=O)[C@H](OC(C)=O)[C@@H]1N(C(C)=O)N(C(C)=O)c2nc(C)cc(=O)n21 [Compound 9, N^1,N^2-Diacetyl-3-(1,2,3,4,5-penta-O-acetyl-D-manno-pentitol-1-yl)-5-methyl-7-oxo-1,2,4-triazolo[4,3-a]pyrimidine] | – | – | – | – | – | – | – | – | –
10.6 ± 0.1 nM | 48.3 ± 30 nM | 22.5 ± 10 nM | – | COc1cccc2c1C(=O)c1c(O)c3c(c(O)c1C2=O)C[C@@](O)(C(=O)CO)C[C@@H]3O[C@H]1C[C@H](N)[C@H](O)[C@H](C)O1 [Doxorubicin, doxorubicin, reference compound] | 30 ± 1 nM | 11.50 ± 0.50 nM | 2.83 | – | 1.33 | 11.5 nM | morphological damage | 0.62 | –
